We go through four compounds from patent US20250289809A1, “COMPOUNDS USEFUL FOR GOUT” (ATOM BIOSCIENCE AMERICA CORPORATION, priority 2022, published 2025).

For series [1], the system named is potassium oxonate -induced hyperuricemic rats. Briefly: Serum uric acid level in potassium oxonate-induced hyperuricemic rats after 3-day administration. The format is in vivo, Sprague Dawley (SD) rats. The following applies: for Uric acid: serum, mean ± SD, n=6; for Effect on serum uric acid level after modeling, compared with the model group at the same time point: 2 mg/kg gavage, hyperuricemic rats, result in words. From the text:
Compound 30 and 32 were light yellow powders and triturated with 0.5% CMC-Na just prior to use to prepare suspensions having a corresponding concentration for gavage.
Febuxostat, purchased from Sigma, was triturated with 0.5% CMC-Na just prior to use to prepare a suspension having a corresponding concentration for gavage.
Sprague Dawley (SD) rats, SPF grade, 30, male, weighing 230-250 g, purchased from Shanghai SLAC Laboratory Animal Co., Ltd., permission number: SCXK (hu) 2022-0004, quality certification number: 20220004017238.
Uric acid assay kit (phosphotungstic acid reduction method), batch number: 20230224, purchased from NanJing Jiancheng Bioengineering Institute; Potassium oxonate, article number: 00164, batch number: T6GKM-TA, purchased from Tokyo Chemical Industry Co., Ltd., Japan (TCI); carboxymethyl cellulose sodium (CMC-Na), batch number: 20170810, chemically pure, purchased from Sinopharm chemical reagent Co., Ltd.
30 male SD rats weighed approximately 220-240 g after one week of adaptation. They were randomly divided into 5 groups according to the body weight, with 6 rats in each group, namely: (1) normal group (0.5% CMC-Na), (2) model group (0.5% CMC-Na), (3) Febuxostat, 2 mg/kg, (4) compound 30, 2 mg/kg and (5) compound 32, 2 mg/kg. The drugs in each group were prepared into a corresponding concentration suspension, and the administration volume was 0.5 mL/100 g.
After the rats in each group were purchased and adapted to feeding, they were fasted for 12 h, and intraperitoneally injected with potassium oxonate at a dose of 300 mg/kg to establish a model. 0.5 h after modeling, each test drug group was subjected to gavage administration once. The drug was administered continuously for 3 days. On day 3, blood samples were collected from the retro-orbital venous plexus before and 1, 3 and 5 h after injection of potassium oxonate. The samples were centrifuged at 3500 rpm for 10 min, and 30 μL of serum was collected to measure the uric acid level at each time point.
The measurement data of each test were expressed as (mean)±(standard deviation). The comparison between groups used ANOVA-Dunnett T test to examine the significance. P<0.05 was used as the significance index, and P<0.01 was used as the extremely significant index.

Series [2] is described as follows: In vivo pharmacokinetic experiments in SD rats (oral and intravenous). The following applies: male, Sprague-Dawley (SD), rat, plasma. The method, then:
Preparation of compound stock solution: An appropriate amount of compound solid powder was be weighed and added in a certain amount of DMSO, and vortex ultrasound to obtain a 10 mg/mL stock solution.
Preparation of test compound for gavage: respectively taking an appropriate amount of the compound stock solution, adding a certain amount of Solutol HS15 solution, vortexing for 1 minute, then adding a certain amount of physiological saline, and fully mixing to obtain a 1 mg/mL solution.
Preparation of test compound for intravenous injection: respectively taking an appropriate amount of the compound stock solution, adding a certain amount of Solutol HS15 solution, vortexing for 1 minute, then adding a certain amount of physiological saline, and fully mixing until uniform, so as to obtain a 0.5 mg/mL solution.
SD rats, male, SPF grade, 6-8 weeks old, purchased from JH Laboratory Animal Co. LTD. Permission number: SCXK (SH) 2022-0009, certification number: 20220009004139.
The experimental animals were fasted overnight before gavage administration, and were given food 4 hours after administration, with free access to water. Each test compound was divided into two groups, namely, intravenous administration group and oral administration group.
Blood samples (150 μL/sample) were collected from the jugular vein of SD rats before administration and at 5 min (only intravenous administration group), 15 min, 30 min, 1 h, 2 h, 4 h, 8 h and 24 h after administration, respectively. The samples were placed in centrifuge tubes containing anticoagulant sodium heparin and centrifuged at 4° C., 2000 g for 5 minutes to separate plasma. The plasma samples were analyzed by LC/MS/MS to detect the concentration of each test compound.
Non-compartmental model-related parameters were calculated by WinNonlin® Professional software.

Where [3] appears, read: 0 h (before potassium oxonate injection on day 3), 2 mg/kg gavage once daily for 3 days.
Setting [4] is: 1 h after potassium oxonate 300 mg/kg i.p. on day 3, 2 mg/kg gavage for 3 days.
Where [5] appears, read: 3 h after potassium oxonate 300 mg/kg i.p. on day 3, 2 mg/kg gavage for 3 days.
[6] abbreviates: 5 h after potassium oxonate 300 mg/kg i.p. on day 3, 2 mg/kg gavage for 3 days.
Where [7] appears, read: Intravenous injection administration - 1 mg/kg.
The mark [8] stands for this setting: po, Gavage administration - 10 mg/kg.

Consider `CC(C)n1cc(C#N)c2cc(-n3cc(C(=O)Oc4cccc(CO[N+](=O)[O-])c4)cn3)ccc21` [compound 32, phenyl [3-(nitrooxy)methyl] 1-(3-cyano-1-isopropyl-1H-indol-5-yl)-1H-pyrazole-4-carboxylate], for which the Uric acid in series [1] (setting [3]) is 49.1 ± 6.7 µmol/L; in series [1] (setting [4]), 68.9 ± 15.8 µmol/L; in series [1] (setting [5]), 82.2 ± 23.3 µmol/L; in series [1] (setting [6]) it was 65.8 ± 13.6 µmol/L. Further, the “Effect on serum uric acid level after modeling, compared with the model group at the same time point” value in series [1] is recorded as “significantly reduce”.

Regarding `Cc1nc(-c2ccc(OCC(C)C)c(C#N)c2)sc1C(=O)O` [Febuxostat, reference compound], the Uric acid in series [1] (setting [3]) is 39.2 ± 6.2 µmol/L; in series [1] (setting [4]), 34.4 ± 7.1 µmol/L; in series [1] (setting [5]), 31.2 ± 7.6 µmol/L; in series [1] (setting [6]) it was 24.7 ± 4.7 µmol/L. Further, the “Effect on serum uric acid level after modeling, compared with the model group at the same time point” value in series [1] is recorded as “significantly reduce”.

A word on the AUC(0-inf): it is total exposure, with the tail of the curve extrapolated. Higher therefore signals high exposure. The term Cmax denotes the maximum level reached in the sampled fluid or tissue. In general, MRT inf refers to the average time that molecules of a dose stay in the body. A word on the Tmax: it is the time at which the peak concentration occurs. What is called half-life is the time needed for the level to fall by half in the phase considered. A low value points to rapid decline. `CCOC(=O)OC(C)OC(=O)c1cnn(-c2ccc3c(c2)c(C#N)cn3C(C)C)c1` (stereo not shown) [compound 11, {1-[(ethoxycarbonyl)oxy]}ethyl 1-(3-cyano-1-isopropyl-1H-indol-5-yl)-1H-pyrazole-4-carboxylate]: in series [2] (setting [7]), the AUC(0-inf) was 1100 ng·h/mL, the highest level (Cmax) was 1860 ng/mL, the mean residence time (MRT inf) amounted to 3.69 h and the Tmax was 0.083 h. In series [2] (setting [7]), this compound showed a half-life of 7.72 h. Also, in series [2] (setting [8]), the AUC(0-inf) was found to be 12400 ng·h/mL, the Cmax was 4670 ng/mL, the MRT inf turned out to be 4.22 h and the Tmax was determined as 0.25 h. Besides, the half-life in series [2] (setting [8]) was 3.44 h.

`CC(C)n1cc(C#N)c2cc(-n3cc(C(=O)OCCCCO[N+](=O)[O-])cn3)ccc21` [compound 30, [4-(nitrooxy)]butyl 1-(3-cyano-1-isopropyl-1H-indol-5-yl)-1H-pyrazole-4-carboxylate]: the Uric acid was found to be 45.0 ± 8.4 µmol/L in series [1] (setting [3]), 70.0 ± 14.8 µmol/L in series [1] (setting [4]), 94.2 ± 22.7 µmol/L in series [1] (setting [5]) and 72.2 ± 11.4 µmol/L in series [1] (setting [6]). The “Effect on serum uric acid level after modeling, compared with the model group at the same time point” value in series [1] is “significantly reduce”.
